# US10464893B2, “Derivatives of pyrrole-2,5-diones having a fungicidal activity, their agronomical compositions and use thereof” (ISAGRO S.p.A., priority 2016, dated 2019)
# Tested on: Uromyces appendiculatus
# Assay: Preventive activity (7 days) against Uromyces appendiculatus on beans
# Type: in vivo
# Conditions: dose 125 ppm; leaf spray on bean plants, inoculation 7 days after treatment; reduction of diseased leaf area vs non-treated (100=total effectiveness)
# Protocol: Determination of the Preventive Activity (7 Days) of Compounds Having Formula (I) Against Uromyces appendiculatus on Beans
# Leaves of bean plants, grown in pots, in a conditioned environment (20±1° C., 70% of R.H.), were treated by spraying both sides with the products under examination.
# 7 days after the treatment, the plants were inoculated with an aqueous suspension of spores of Uromyces appendiculatus (200,000 spores/cc) by spraying on both sides of the leaves with a compressed air gun.
# (§1) After remaining 24 hours in a humidity saturated environment, at 21° C., the plants were transferred for the incubation period (7 days) to a conditioned environment at 70% R.H. and at 24° C.
# (§2) After this period, the external symptoms of the pathogen appeared and it was consequently possible to proceed with a visual evaluation of the intensity of the infection.
# (§3) The fungicidal activity is expressed as a reduction percentage, with respect to non-treated seedlings, in the area of the leaves affected by the disease (100=total effectiveness, 0=zero effectiveness).
# Table 3 indicates the results obtained for the compounds tested, compared with the reference product Domark® (Tetraconazole).
row,Compound,Effectiveness (%)
1,"CC(=O)ON1C(=O)C(c2ccccc2Br)=C(c2cccc3ccccc23)C1=O [Compound 11, 1-acetyloxy-3-(2-bromophenyl)-4-(1-naphthyl)-1H-pyrrole-2,5-dione]",80%
2,"CS(=O)(=O)N1C(=O)C(c2ccccc2)=C(c2cccc3ccccc23)C1=O [Compound 3, 1-methanesulfonyl-3-phenyl-4-(1-naphthyl)-1H-pyrrol-2,5-dione]",84%
3,"CCOC(=O)NN1C(=O)C(c2ccccc2Br)=C(c2cccc3ccccc23)C1=O [Compound 13, ethyl 3-(2-bromophenyl)-4-(1-naphthyl)-2,5-dione-1H-pyrrolylcarbamate]",81%
4,"CS(=O)(=O)ON1C(=O)C(c2ccccc2Br)=C(c2cccc3ccccc23)C1=O [Compound 12, 3-(2-bromophenyl)-1-(methane-sulfonyloxy)-4-(1-naphthyl)-1H-pyrrole-2,5-dione]",83%
5,"t-butyl 3-phenyl-4-(1-naphthyl)-2,5-dione-1H-pyrrolylcarbamate [Compound 8]",93%

# Same assay, conditions: dose 500 ppm; leaf spray on bean plants, inoculation 7 days after treatment; reduction of diseased leaf area vs non-treated (100=total effectiveness)
row,Compound,Effectiveness (%)
1,"CC(=O)ON1C(=O)C(c2ccccc2Br)=C(c2cccc3ccccc23)C1=O [Compound 11, 1-acetyloxy-3-(2-bromophenyl)-4-(1-naphthyl)-1H-pyrrole-2,5-dione]",95%
2,"CS(=O)(=O)N1C(=O)C(c2ccccc2)=C(c2cccc3ccccc23)C1=O [Compound 3, 1-methanesulfonyl-3-phenyl-4-(1-naphthyl)-1H-pyrrol-2,5-dione]",93%
3,"CCOC(=O)NN1C(=O)C(c2ccccc2Br)=C(c2cccc3ccccc23)C1=O [Compound 13, ethyl 3-(2-bromophenyl)-4-(1-naphthyl)-2,5-dione-1H-pyrrolylcarbamate]",92%
4,"CS(=O)(=O)ON1C(=O)C(c2ccccc2Br)=C(c2cccc3ccccc23)C1=O [Compound 12, 3-(2-bromophenyl)-1-(methane-sulfonyloxy)-4-(1-naphthyl)-1H-pyrrole-2,5-dione]",98%
5,"t-butyl 3-phenyl-4-(1-naphthyl)-2,5-dione-1H-pyrrolylcarbamate [Compound 8]",95%

# Tested on: Plasmopara viticola
# Assay: Preventive activity (7 days) against Plasmopara viticola on vines
# Type: in vivo
# Conditions: dose 125 ppm; leaf spray on vine plants, inoculation 7 days after treatment; reduction of diseased leaf area vs non-treated (100=total effectiveness)
# Protocol: Determination of the Preventive Activity (7 Days) of Compounds Having Formula (I) Against Plasmopara viticola on Vines
# Leaves of vine plants, grown in pots, in a conditioned environment (20±1° C., 70% of R.H.), were treated by spraying both sides with the products under examination.
# 7 days after the treatment, the plants were inoculated with an aqueous suspension of spores of Plasmopara viticola (200,000 spores/cc) by spraying on both sides of the leaves with a compressed air gun.
# as §1, §2, §3
# Table 2 indicates the results obtained for the compounds tested, compared with the reference product Mancozeb (polymeric complex of manganese ethylenebisdithiocarbamate with zinc salt).
row,Compound,Effectiveness (%)
1,"CC(=O)ON1C(=O)C(c2ccccc2Br)=C(c2cccc3ccccc23)C1=O [Compound 11, 1-acetyloxy-3-(2-bromophenyl)-4-(1-naphthyl)-1H-pyrrole-2,5-dione]",82%
2,"CS(=O)(=O)N1C(=O)C(c2ccccc2)=C(c2cccc3ccccc23)C1=O [Compound 3, 1-methanesulfonyl-3-phenyl-4-(1-naphthyl)-1H-pyrrol-2,5-dione]",86%
3,"CCOC(=O)NN1C(=O)C(c2ccccc2Br)=C(c2cccc3ccccc23)C1=O [Compound 13, ethyl 3-(2-bromophenyl)-4-(1-naphthyl)-2,5-dione-1H-pyrrolylcarbamate]",89%
4,"polymeric complex of manganese ethylenebisdithiocarbamate with zinc salt [Mancozeb, reference compound]",78%
5,"CS(=O)(=O)ON1C(=O)C(c2ccccc2Br)=C(c2cccc3ccccc23)C1=O [Compound 12, 3-(2-bromophenyl)-1-(methane-sulfonyloxy)-4-(1-naphthyl)-1H-pyrrole-2,5-dione]",91%

# Same assay, conditions: dose 500 ppm; leaf spray on vine plants, inoculation 7 days after treatment; reduction of diseased leaf area vs non-treated (100=total effectiveness)
row,Compound,Effectiveness (%)
1,"CC(=O)ON1C(=O)C(c2ccccc2Br)=C(c2cccc3ccccc23)C1=O [Compound 11, 1-acetyloxy-3-(2-bromophenyl)-4-(1-naphthyl)-1H-pyrrole-2,5-dione]",92%
2,"CS(=O)(=O)N1C(=O)C(c2ccccc2)=C(c2cccc3ccccc23)C1=O [Compound 3, 1-methanesulfonyl-3-phenyl-4-(1-naphthyl)-1H-pyrrol-2,5-dione]",99%
3,"CCOC(=O)NN1C(=O)C(c2ccccc2Br)=C(c2cccc3ccccc23)C1=O [Compound 13, ethyl 3-(2-bromophenyl)-4-(1-naphthyl)-2,5-dione-1H-pyrrolylcarbamate]",97%
4,"polymeric complex of manganese ethylenebisdithiocarbamate with zinc salt [Mancozeb, reference compound]",96%
5,"CS(=O)(=O)ON1C(=O)C(c2ccccc2Br)=C(c2cccc3ccccc23)C1=O [Compound 12, 3-(2-bromophenyl)-1-(methane-sulfonyloxy)-4-(1-naphthyl)-1H-pyrrole-2,5-dione]",93%
